For one assay, the system named is AVEFA. The assay can be described thus: Herbicidal post-emergence action 1a (greenhouse pots, visual rating). The class given is in vivo, Avena fatua. Conditions: rated visually about 3 weeks after treatment, 100% = plants have died, 0% = like control plants. The procedure, abridged:
(§1)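 Visual scoring versus untreated plants (100% = plants dead, 0% = as control) followed roughly 3 weeks in the greenhouse after treatment. Plants grown in sandy loam pots had been sprayed on green parts at the one-leaf stage, 2–3 weeks post-sowing, with aqueous WP/EC preparations containing 0.5% additive, 600 l/ha, at 320 and/or 80 g/ha.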

Another assay deals with LOLRI. The assay is described as above. It counts as in vivo, Lolium rigidum. Conditions: rated visually about 3 weeks after treatment, 100% = plants have died, 0% = like control plants. The procedure, abridged: as §1
A further assay deals with PHBPU. Described as above. The class given is in vivo, Pharbitis purpurea. Conditions: visual rating about 3 weeks after treatment. The procedure, abridged:
as §1

Assay [1] has as its system VIOTR. The assay is described as above. It counts as in vivo, Viola tricolor. To be noted: visual rating about 3 weeks after treatment. The procedure, abridged: as §1
Another assay relates to POAAN. The assay can be described thus: Herbicidal post-emergence action 1b (twin sowing, 1280 g/ha). The class given is in vivo, Poa annua. To be noted: dosage 1280 g/ha, visual rating about 3 weeks after treatment. The procedure, abridged:
(§2)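 Compounds, formulated as wettable powders or emulsion concentrates, were applied to foliage of greenhouse-grown weeds at the one-leaf stage with 0.5% additive in 600 L/ha water. Pots held one monocot and one dicot species in sandy loam. Efficacy was scored visually after about 3 weeks versus controls.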

In assay [2] the test system is ECHCG. Described as above. The class given is in vivo, Echinochloa crus-galli. Conditions: dosage 1280 g/ha, visual rating about 3 weeks after treatment. The procedure, abridged:
as §2

A further assay deals with MATIN. The description is as above. The class given is in vivo, Matricaria inodora. To be noted: dosage 1280 g/ha, visual rating about 3 weeks after treatment. The procedure, abridged: as §2
In another assay the test system is STEME. The assay is described as above. The class given is in vivo, Stellaria media. To be noted: dosage 1280 g/ha, visual rating about 3 weeks after treatment. The procedure, abridged: as §2
Assay [3] has as its system VIOTR. The experiment in a line: Herbicidal pre-emergence action 2a (greenhouse pots, visual scoring). Conditions: dosage 320 g/ha, visual scoring after about 3 weeks vs untreated controls. The class given is in vivo, Viola tricolor. The procedure, abridged:
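Pre-emergence greenhouse pot test: WP or EC formulations sprayed onto covering soil over sown seeds at 600 l/ha water with 0.5% additive, at rates corresponding to 320 g/ha and/or 80 g/ha. Visual % activity versus untreated controls after about 3 weeks (100% = plants dead).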

The subject of assay [4] is ECHCG. The experiment in a line: Herbicidal pre-emergence action 2b (doubly sown, 1280 g/ha). The class given is in vivo, Echinochloa crus-galli. Conditions: doubly sown pots, dosage 1280 g/ha, visual scoring after about 3 weeks. The procedure, abridged:
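Sandy loam pots, one mono- or dicot species each, double sowing; seeds covered. Aqueous WP/EC spray + 0.5% additive, 600 L/ha, onto cover soil. GH, ~3 wk, visual % vs control.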

A further assay relates to harmful plants. The assay can be described thus: Herbicidal pre-emergence action 2a, summary across species. It counts as in vivo. Conditions: Tables B1 to B15 (320 g/ha and/or 80 g/ha). The procedure, abridged:
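Pre-emergence greenhouse test: WP or EC formulations sprayed onto soil covering sown weed and crop seeds, 600 l/ha water with 0.5% additive, at 320 g/ha and/or 80 g/ha. Damage scored visually after about 3 weeks as % versus untreated control (100% = plants dead).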

Turning to `COC(=O)[C@@H](C)Oc1nn(-c2cnccn2)c(-c2ccnc(F)c2)c1Br` [Example I-34], the “Post-emergence action against AVEFA in %” value with AVEFA (Dosage 320 g/ha) came out at 90%. Besides, in the assay on LOLRI (Dosage 320 g/ha), the “Post-emergence action against LOLRI in %” value is 80%. Besides, the “Post-emergence action against PHBPU in %” value in the assay on PHBPU (dosage 320 g/ha) turned out to be 80%. The “Post-emergence action against VIOTR in %” value in the assay with VIOTR [1] (dosage 80 g/ha) and in the assay on VIOTR [1] (dosage 320 g/ha) was 90% in each case. The “Post-emergence action at 1280 g/ha against POAAN in %” value with POAAN was 100%. Moreover, in the assay on ECHCG [2], the “Post-emergence action at 1280 g/ha against ECHCG in %” value worked out at 100%. For the same compound, the “Post-emergence action at 1280 g/ha against MATIN in %” value in the assay on MATIN turned out to be 90%. Besides, in the assay with STEME, the “Post-emergence action at 1280 g/ha against STEME in %” value stood at 100%. Moreover, in the assay with VIOTR [3], the “Pre-emergence action against VIOTR in %” value is given as 100%. Moreover, the “Pre-emergence action at 1280 g/ha against ECHCG in %” value with ECHCG [4] is 90%. The “herbicidal efficacy against harmful plants in the case of pre-emergence treatment (in words)” value with harmful plants is on record as “good herbicidal efficacy”.

For the compound `COC(=O)[C@@H](C)Oc1nn(-c2cnccn2)c(-c2cncc(F)c2)c1Br` [Example I-39], the figures for the “Post-emergence action against AVEFA in %” value in the assay on AVEFA (Dosage 80 g/ha) and in the assay with AVEFA (Dosage 320 g/ha) were 80% and 90%, respectively. Further, the “Post-emergence action against LOLRI in %” value in the assay with LOLRI (Dosage 80 g/ha) and in the assay on LOLRI (Dosage 320 g/ha) was 90% in each case. Further, the “Post-emergence action against PHBPU in %” value is 80% with PHBPU (dosage 80 g/ha) and 90% in the assay on PHBPU (dosage 320 g/ha). Also, the “Post-emergence action against VIOTR in %” value is on record as 80% in the assay with VIOTR [1] (dosage 80 g/ha) and 90% in the assay on VIOTR [1] (dosage 320 g/ha). Besides, in the assay with POAAN, the “Post-emergence action at 1280 g/ha against POAAN in %” value is 100%. In the assay on ECHCG [2], the “Post-emergence action at 1280 g/ha against ECHCG in %” value amounted to 100%. Also, the “Post-emergence action at 1280 g/ha against MATIN in %” value in the assay with MATIN was 90%. In addition, in the assay on STEME, the “Post-emergence action at 1280 g/ha against STEME in %” value is 100%. Besides, the “Pre-emergence action against VIOTR in %” value with VIOTR [3] is on record as 100%. In addition, the “Pre-emergence action at 1280 g/ha against ECHCG in %” value with ECHCG [4] is reported as 100%. The “herbicidal efficacy against harmful plants in the case of pre-emergence treatment (in words)” value in the assay on harmful plants is on record as “good herbicidal efficacy”.

Values taken from patent US20230167088A1, “1-PYRAZINYLPYRAZOLYL-3-OXYALKYL ACIDS AND THEIR DERIVATIVES, AND THEIR USE FOR CONTROL OF UNDESIRED PLANT GROWTH” (BAYER AKTIENGESELLSCHAFT, priority 2020, published 2023).
